Source: patent US4731451A, “N-((2-oxo-3(2H)benzothiazolyl)methyl)-2-chloroacetanilides” (Monsanto Company, priority 1980, dated 1988)

Experiments:
Type in all cases: in vivo
Cocklebur = experiment: Pre-emergent herbicidal activity (Table III); note: ranges in brackets are in %
Summary of the method: (§1)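 Treated cover soil over seeded pans; sub-irrigated greenhouse culture; fixed-scale injury rating after ~2-3 weeks.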

Crabgrass = experiment: Pre-emergent herbicidal activity (Table III); note: ranges in brackets are in %
Summary of the method: as §1

Downy Brome = experiment: Pre-emergent herbicidal activity (Table III); note: ranges in brackets are in %
Summary of the method: as §1

Hemp Sesbania = experiment: Pre-emergent herbicidal activity (Table III); note: ranges in brackets are in %
Summary of the method: as §1

Lambsquarters = experiment: Pre-emergent herbicidal activity (Table III); note: ranges in brackets are in %
Summary of the method: as §1

Morningglory = experiment: Pre-emergent herbicidal activity (Table III); note: ranges in brackets are in %
Summary of the method: as §1

Panicum = experiment: Pre-emergent herbicidal activity (Table III); note: ranges in brackets are in %
Summary of the method: as §1

Rice = experiment: Pre-emergent herbicidal activity (Table III); note: ranges in brackets are in %
Summary of the method: as §1

Smartweed = experiment: Pre-emergent herbicidal activity (Table III); note: ranges in brackets are in %
Summary of the method: as §1

Sorghum = experiment: Pre-emergent herbicidal activity (Table III); note: ranges in brackets are in %
Summary of the method: as §1

Soybean = experiment: Pre-emergent herbicidal activity (Table III); note: ranges in brackets are in %
Summary of the method: as §1

Sugarbeet = experiment: Pre-emergent herbicidal activity (Table III); note: ranges in brackets are in %
Summary of the method: as §1

Velvetleaf = experiment: Pre-emergent herbicidal activity (Table III); note: ranges in brackets are in %
Summary of the method: as §1

Wheat = experiment: Pre-emergent herbicidal activity (Table III); note: ranges in brackets are in %
Summary of the method: as §1

Wild Buckwheat = experiment: Pre-emergent herbicidal activity (Table III); note: ranges in brackets are in %
Summary of the method: as §1

Cyperus serotinus = experiment: Percent inhibition of rice weeds in transplanted rice (Table VI); settings: 432 h, 18 days after treatment
Text: (§2) In Table VI, data is presented showing the effect of said compound on the major Asian rice weeds Echinochloa crusgalli (EC), Monochoria vaginalis (MV), Cyperus serotinus (CS), Eleocharis kuroguwai (EK) and Sagittaria trifolia (ST) in transplanted rice at rates within the range of 0.25-2.0 lb/A (0.28-2.24 kg/ha); observations were made 18 days after treatment.

Echinochloa crusgalli = experiment: as above; settings: Echinochloa crus-galli, 432 h, 18 days after treatment
Text: as §2

Eleocharis kuroguwai = experiment: as above; settings: 432 h, 18 days after treatment
Text: as §2

Monochoria vaginalis = experiment: as above; settings: Pontederia vaginalis, 432 h, 18 days after treatment
Text: as §2

Sagittaria trifolia = experiment: as above; settings: 432 h, 18 days after treatment
Text: as §2

major Asian rice weeds = experiment: Selective control of weeds in transplanted rice (summary of Table VI)
Text: as §2

With `CC1=C(N(Cn2c(=O)sc3ccccc32)C(=O)CCl)C(C)CCC1` (centres unmarked) [Example 1, N-(2,6-dimethyl-1-cyclohexen-1-yl)-N-[(2-oxo-3(2H)-benzothiazolyl)methyl]-2-chloroacetamide] the Herbicidal rating (Cocklebur; 0.0112 kg/ha) was 0 (0-24), the Herbicidal rating (Cocklebur; 0.056 kg/ha) was 0 (0-24) and the Herbicidal rating (Crabgrass; 0.0056 kg/ha) was 3 (75-100). For the same compound, the Herbicidal rating (Crabgrass; 0.0112 kg/ha) was 2 (50-74), the Herbicidal rating (Crabgrass; 0.056 kg/ha) was 3 (75-100) and the Herbicidal rating (Crabgrass; 0.28 kg/ha) was 3 (75-100). For the same compound, the Herbicidal rating (Crabgrass; 1.12 kg/ha) was 3 (75-100), the Herbicidal rating (Crabgrass; 5.6 kg/ha) was 3 (75-100) and the Herbicidal rating (Downy Brome; 0.0056 kg/ha) was 0 (0-24). The Herbicidal rating (Downy Brome; 0.0112 kg/ha) was 1 (25-49), the Herbicidal rating (Downy Brome; 0.056 kg/ha) was 0 (0-24) and the Herbicidal rating (Downy Brome; 0.28 kg/ha) was 0 (0-24). The Herbicidal rating (Downy Brome; 1.12 kg/ha) was 3 (75-100), the Herbicidal rating (Downy Brome; 5.6 kg/ha) was 0 (0-24) and the Herbicidal rating (Hemp Sesbania; 0.0112 kg/ha) was 1 (25-49). The Herbicidal rating (Hemp Sesbania; 0.056 kg/ha) was 0 (0-24), the Herbicidal rating (Lambsquarters; 0.0056 kg/ha) was 1 (25-49) and the Herbicidal rating (Lambsquarters; 0.0112 kg/ha) was 1 (25-49). The Herbicidal rating (Lambsquarters; 0.056 kg/ha) was 1 (25-49), the Herbicidal rating (Lambsquarters; 0.28 kg/ha) was 2 (50-74) and the Herbicidal rating (Lambsquarters; 1.12 kg/ha) was 2 (50-74). The Herbicidal rating (Lambsquarters; 5.6 kg/ha) was 1 (25-49), the Herbicidal rating (Morningglory; 0.0056 kg/ha) was 3 (75-100) and the Herbicidal rating (Morningglory; 0.0112 kg/ha) was 3 (75-100). The Herbicidal rating (Morningglory; 0.056 kg/ha) was 1 (25-49), the Herbicidal rating (Morningglory; 0.28 kg/ha) was 0 (0-24) and the Herbicidal rating (Morningglory; 1.12 kg/ha) was 0 (0-24). For the same compound, the Herbicidal rating (Morningglory; 5.6 kg/ha) was 0 (0-24), the Herbicidal rating (Panicum; 0.0056 kg/ha) was 3 (75-100) and the Herbicidal rating (Panicum; 0.0112 kg/ha) was 3 (75-100). For the same compound, the Herbicidal rating (Panicum; 0.056 kg/ha) was 3 (75-100), the Herbicidal rating (Panicum; 0.28 kg/ha) was 3 (75-100) and the Herbicidal rating (Panicum; 1.12 kg/ha) was 3 (75-100). The Herbicidal rating (Panicum; 5.6 kg/ha) was 2 (50-74), the Herbicidal rating (Rice; 0.0056 kg/ha) was 1 (25-49) and the Herbicidal rating (Rice; 0.0112 kg/ha) was 1 (25-49). For the same compound, the Herbicidal rating (Rice; 0.056 kg/ha) was 0 (0-24), the Herbicidal rating (Rice; 0.28 kg/ha) was 2 (50-74) and the Herbicidal rating (Rice; 1.12 kg/ha) was 2 (50-74). The Herbicidal rating (Rice; 5.6 kg/ha) was 2 (50-74), the Herbicidal rating (Smartweed; 0.0056 kg/ha) was 1 (25-49) and the Herbicidal rating (Smartweed; 0.0112 kg/ha) was 1 (25-49). For the same compound, the Herbicidal rating (Smartweed; 0.056 kg/ha) was 1 (25-49), the Herbicidal rating (Smartweed; 0.28 kg/ha) was 1 (25-49) and the Herbicidal rating (Smartweed; 1.12 kg/ha) was 0 (0-24). For the same compound, the Herbicidal rating (Smartweed; 5.6 kg/ha) was 0 (0-24), the Herbicidal rating (Sorghum; 0.0056 kg/ha) was 0 (0-24) and the Herbicidal rating (Sorghum; 0.0112 kg/ha) was 1 (25-49). For the same compound, the Herbicidal rating (Sorghum; 0.056 kg/ha) was 0 (0-24), the Herbicidal rating (Sorghum; 0.28 kg/ha) was 0 (0-24) and the Herbicidal rating (Sorghum; 1.12 kg/ha) was 3 (75-100). The Herbicidal rating (Sorghum; 5.6 kg/ha) was 1 (25-49), the Herbicidal rating (Soybean; 0.0056 kg/ha) was 0 (0-24) and the Herbicidal rating (Soybean; 0.0112 kg/ha) was 0 (0-24). For the same compound, the Herbicidal rating (Soybean; 0.056 kg/ha) was 1 (25-49), the Herbicidal rating (Soybean; 0.28 kg/ha) was 0 (0-24) and the Herbicidal rating (Soybean; 1.12 kg/ha) was 0 (0-24). For the same compound, the Herbicidal rating (Soybean; 5.6 kg/ha) was 1 (25-49), the Herbicidal rating (Sugarbeet; 0.0056 kg/ha) was 0 (0-24) and the Herbicidal rating (Sugarbeet; 0.0112 kg/ha) was 0 (0-24). For the same compound, the Herbicidal rating (Sugarbeet; 0.056 kg/ha) was 1 (25-49), the Herbicidal rating (Sugarbeet; 0.28 kg/ha) was 1 (25-49) and the Herbicidal rating (Sugarbeet; 1.12 kg/ha) was 1 (25-49). For the same compound, the Herbicidal rating (Sugarbeet; 5.6 kg/ha) was 1 (25-49), the Herbicidal rating (Velvetleaf; 0.0056 kg/ha) was 0 (0-24) and the Herbicidal rating (Velvetleaf; 0.0112 kg/ha) was 0 (0-24). The Herbicidal rating (Velvetleaf; 0.056 kg/ha) was 0 (0-24), the Herbicidal rating (Velvetleaf; 0.28 kg/ha) was 0 (0-24) and the Herbicidal rating (Velvetleaf; 1.12 kg/ha) was 0 (0-24). For the same compound, the Herbicidal rating (Velvetleaf; 5.6 kg/ha) was 0 (0-24), the Herbicidal rating (Wheat; 0.0056 kg/ha) was 0 (0-24) and the Herbicidal rating (Wheat; 0.0112 kg/ha) was 0 (0-24). For the same compound, the Herbicidal rating (Wheat; 0.056 kg/ha) was 0 (0-24), the Herbicidal rating (Wheat; 0.28 kg/ha) was 0 (0-24) and the Herbicidal rating (Wheat; 1.12 kg/ha) was 1 (25-49). For the same compound, the Herbicidal rating (Wheat; 5.6 kg/ha) was 0 (0-24), the Herbicidal rating (Wild Buckwheat; 0.0056 kg/ha) was 0 (0-24) and the Herbicidal rating (Wild Buckwheat; 0.0112 kg/ha) was 0 (0-24). For the same compound, the Herbicidal rating (Wild Buckwheat; 0.056 kg/ha) was 0 (0-24), the Herbicidal rating (Wild Buckwheat; 0.28 kg/ha) was 0 (0-24) and the Herbicidal rating (Wild Buckwheat; 1.12 kg/ha) was 0 (0-24). The Herbicidal rating (Wild Buckwheat; 5.6 kg/ha) was 0 (0-24), the inhibition at 280 g/ha (Cyperus serotinus; 0.28 kg/ha) was 80% and the inhibition at 560 g/ha (Cyperus serotinus; 0.56 kg/ha) was 90%. The inhibition at 1120 g/ha (Cyperus serotinus; 1.12 kg/ha) was 100%, the inhibition at 2240 g/ha (Cyperus serotinus; 2.24 kg/ha) was 100% and the inhibition at 280 g/ha (Echinochloa crusgalli; 0.28 kg/ha) was 100%. The inhibition at 560 g/ha (Echinochloa crusgalli; 0.56 kg/ha) was 100%, the inhibition at 1120 g/ha (Echinochloa crusgalli; 1.12 kg/ha) was 100% and the inhibition at 2240 g/ha (Echinochloa crusgalli; 2.24 kg/ha) was 100%. For the same compound, the inhibition at 280 g/ha (Eleocharis kuroguwai; 0.28 kg/ha) was 100%, the inhibition at 560 g/ha (Eleocharis kuroguwai; 0.56 kg/ha) was 100% and the inhibition at 1120 g/ha (Eleocharis kuroguwai; 1.12 kg/ha) was 100%. The inhibition at 2240 g/ha (Eleocharis kuroguwai; 2.24 kg/ha) was 100%, the inhibition at 280 g/ha (Monochoria vaginalis; 0.28 kg/ha) was 100% and the inhibition at 560 g/ha (Monochoria vaginalis; 0.56 kg/ha) was 100%. For the same compound, the inhibition at 1120 g/ha (Monochoria vaginalis; 1.12 kg/ha) was 100%, the inhibition at 2240 g/ha (Monochoria vaginalis; 2.24 kg/ha) was 100% and the inhibition at 280 g/ha (Sagittaria trifolia; 0.28 kg/ha) was 0%. It also gave an inhibition at 560 g/ha (Sagittaria trifolia; 0.56 kg/ha) of 5%, an inhibition at 1120 g/ha (Sagittaria trifolia; 1.12 kg/ha) of 5% and an inhibition at 2240 g/ha (Sagittaria trifolia; 2.24 kg/ha) of 5%. The “efficacy as a rice herbicide” value (major Asian rice weeds) was “particularly efficacious as a rice herbicide” and the selective weed control (major Asian rice weeds; rates as low as 0.28 kg/ha) was “selectively controlled all weeds in the test, except Sagittaria trifolia”.
